Values of other authors, collected in patent US10024828B2, “Adsorbent and analysis method using same” (Hitachi High-Technologies Corporation, priority 2013, dated 2018).

Settings: source not stated (calculated or measured value)

| log P (octanol-water partition coefficient) | Compound |
| --- | --- |
| −0.57 | O=c1[nH]cc(F)c(=O)[nH]1 [5-fluorouracil] |
| 0.14 | Nc1ccn([C@@H]2O[C@H](CO)[C@@H](O)C2(F)F)c(=O)n1 [gemcitabine] |
| −0.91 | CN(Cc1cnc2nc(N)nc(N)c2n1)c1ccc(C(=O)N[C@@H](CCC(=O)O)C(=O)O)cc1 [methotrexate] |
